Assay results: patent US20120238532A1, “TREATMENT OF HUMAN OSTEOSARCOMA” (CEDARS-SINAI MEDICAL CENTER, priority 2009, published 2012)

Tests used:
MG-63 cells = test: Annexin V-FITC apoptosis assay, MG-63; format: cell-based, human; details: at ED50, 72 hours of exposure
Procedure: (§1) Cells were harvested and fixed with 70% ethanol at regular time intervals. Fixed cells were stained with propidium iodide (PI) for flow cytometry analysis using BD FACScan (BD Biosciences, San Jose, Calif.). Distribution of cell cycle was analyzed by ModFit LT V2.0 software (Verity Software House, Topsham, Me.). […] After 24, 48, and 72 hours of exposure, cells were harvested and stained with PI and fluorescein isothiocyanate (FITC) using Annexin V-FITC apoptosis detection kit (BD Biosciences) according to the manufacturer's protocol. Cells were subjected to flow cytometry analysis within one hour of staining.

Blood counts in mice = format: in vivo; details: day 35
Procedure: Whole blood samples were obtained by submandibular bleeding and serum samples were harvested with serum separator tubes (BD Biosciences). Blood count and serum chemistry results were obtained by the Hemagen Analyst Benchtop Chemistry System (Hemagen Diagnostics, Inc. Columbia, Md.). Colony-forming cell (CFC) assays were performed as previously described (18).

SAOS-2 cells [1] = test: Cell cycle analysis (PI, FACS), SAOS-2; format: cell-based, human
Procedure: as §1

MG-63 xenografts = test: Immunohistochemistry of xenografts (HE, Ki-67, TUNEL); format: in vivo, mice; details: LD-CuB 0.5 mg/kg; day 35
Excerpt: At autopsy, tumors and internal organs including liver, spleen, kidneys were excised, weighed, and then fixed in 10% PBS-buffered formalin and maintained in 70% ethanol. For IHC, fixed tumors and organs were embedded in paraplast (Oxford Labware, St. Louis, Mo.), cut in 6 μm thick sections, and stained with hematoxylin and eosin (HE) for histopathological examination.
For Ki-67 proliferation assay, tumor sections were deparaffinized with xylene and rehydrated through graded ethanol. Endogenous peroxidase activity was blocked with 3% hydrogen peroxide in methanol. […] After incubation, tumor sections were stained with diaminobenzidine (DAB) and counterstained with hematoxylin. Terminal deoxynucleotidyl transferase dUTP nick end labeling (TUNEL) apoptosis assay was performed using ApopTaq Plus Peroxidase In Situ Apoptosis Kit (Millipore) according to the manufacturer's protocol. Percent positive cells in representative microscopic fields were counted using ImageJ (17).

SAOS-2 cells [2] = test: Morphological changes (crystal violet staining), SAOS-2; format: cell-based, human
Procedure: FIG. 2. (A) Graphical representation of the effect of CuB on MG-63 and SAOS-2 cells. Cells were exposed to CuB at their ED50 (70 nM for MG-63 and 50 nM for SAOS-2 cells). Time-dependent antiproliferative activity of CuB on MG-63 and SAOS-2 cells measured by pulse-exposure experiments. Cells were exposed to CuB for 2, 9, or 20 hours, washed extensively, and cultured in the absence of CuB for an additional 24, 48, and 72 hours. Cell growth was measured by MTT assay. Measurements were repeated in triplicates. Data represent mean±SD. Asterisks (**) represent p<0.001 vs DMSO control by t-test. (B) Morphological changes of MG-63 and SAOS-2 cells after exposure to cucurbitacin B. Cells with normal morphology (top) were compared to rounded cells (middle) and multinucleated cells (bottom). […] Representative cells are shown. 400×; scale bar=50 μm. (C) Graphical representation of G2/M cell cycle arrest after 20 hours of exposure to cucurbitacin B. Cells were stained with propidium iodide (PI) and analyzed by FACS. (D) Graphical representation of apoptosis after 72 hours of exposure to cucurbitacin B. Cells were stained with PI and Annexin V-FITC, and analyzed by FACS.

SMILES: CC(=O)OC(C)(C)/C=C/C(=O)[C@](C)(O)[C@H]1[C@H](O)C[C@@]2(C)[C@@H]3CC=C4[C@H](C[C@H](O)C(=O)C4(C)C)[C@]3(C)C(=O)C[C@]12C [CuB, cucurbitacin B]
- apoptotic cells (MG-63 cells): 44%
- Basophils (Blood counts in mice; HD-CuB 1.0 mg/kg): 0.05 ± 0.07 K/μl
- Eosinophils (Blood counts in mice; HD-CuB 1.0 mg/kg): 0.15 ± 0.07 K/μl
- Hb (Blood counts in mice; HD-CuB 1.0 mg/kg): 10.10 ± 0.42 g/dL
- Lymphocytes (Blood counts in mice; HD-CuB 1.0 mg/kg): 2.90 ± 0.71 K/μl
- Monocytes (Blood counts in mice; HD-CuB 1.0 mg/kg): 0.35 ± 0.07 K/μl
- Neutrophills (Blood counts in mice; HD-CuB 1.0 mg/kg): 2.10 ± 0.42 K/μl
- Platelets (Blood counts in mice; HD-CuB 1.0 mg/kg): 651 ± 52.33 K/μl
- RBCs (Blood counts in mice; HD-CuB 1.0 mg/kg): 7.78 ± 0.45 M/μl
- WBCs (Blood counts in mice; HD-CuB 1.0 mg/kg): 5.55 ± 1.34 K/μl
- Basophils (Blood counts in mice; LD-CuB 0.5 mg/kg): 0.00 ± 0.00 K/μl
- Eosinophils (Blood counts in mice; LD-CuB 0.5 mg/kg): 0.01 ± 0.01 K/μl
- Hb (Blood counts in mice; LD-CuB 0.5 mg/kg): 9.60 ± 0.85 g/dL
- Lymphocytes (Blood counts in mice; LD-CuB 0.5 mg/kg): 2.63 ± 0.24 K/μl
- Monocytes (Blood counts in mice; LD-CuB 0.5 mg/kg): 0.18 ± 0.03 K/μl
- Neutrophills (Blood counts in mice; LD-CuB 0.5 mg/kg): 1.42 ± 0.30 K/μl
- Platelets (Blood counts in mice; LD-CuB 0.5 mg/kg): 742 ± 115.97 K/μl
- RBCs (Blood counts in mice; LD-CuB 0.5 mg/kg): 7.21 ± 1.00 M/μl
- WBCs (Blood counts in mice; LD-CuB 0.5 mg/kg): 4.23 ± 0.04 K/μl
- increase of G2/M phase (SAOS-2 cells [1]; 20 hours of exposure): around 3 fold
- G2/M phase (SAOS-2 cells [1]; 20 hours of exposure at ED50 (control 15%)): 42%
- HE-stained tumors (MG-63 xenografts): decreased tumor area and smaller blood vessels
- morphological changes (SAOS-2 cells [2]; 2 hour exposure): Rapid loss of pseudopodia and rounding
- morphological changes (SAOS-2 cells [2]; 9 hour-exposure): multinuclearity which was not reversed by CuB removal
